In brackets after ≈: the same amount, converted by molar mass. Several values for one entry are separate records, joined by “and”; a condition that tells them apart may be missing. Identical values can stand only once. Like-named read-outs stand apart in the source and are kept apart here.
Assays:
[1] = test system: Enterotoxigenic Escherichia coli (ETEC) strain H10407; assay: Growth of ETEC strain H10407 with rifaximin in the presence and absence of bile acids (OD600 / cell density); format: cell-based
Procedure: Enterotoxigenic Escherichia coli (ETEC) strain H10407 was used as a model bacteria in all the susceptibility experiments.
Equimolar concentrations (0.67 mM) of each of these bile acids were pooled (4 mM total bile acids) for the experiments. In order to determine the Total Human Bile Concentration, a sample of human bile taken after cholecystectomy was kindly provided by Dr. David Graham (Department of Medicine, Veterans Affairs Medical Center and the Division of Molecular Virology, Baylor College of Medicine, Houston, Tex., and Director of Study Design and Clinical Research Core, Texas Medical Center Digestive Disease. Center). The total bile acids concentration was determined using the Diazyme Total Bile Acids assay (Diazyme Laboratories, CA) following the protocol provided by the manufacturer.
In each experiment, an overnight culture of E. coli H10407 was added to the LB media to OD600 of 0.04 (approximately 4×10^7 cells/mL) and incubated for 4-6 hours at 37° C. in a shaker at 200 rpm. Optical density measurements (OD600) were determined every 30 minutes. The experiment was replicated four times and average OD used for the analysis. […]

[2] = test system: Enterotoxigenic Escherichia coli (ETEC) strain H10407; assay: as above; format: cell-based; remark: listed apart in the source
[3] = test system: beta-galactosidase expressed by E. coli H10407; assay: Beta-galactosidase assay (IPTG-induced expression, Miller Units); format: cell-based, Escherichia coli; settings: rifaximin added to the culture medium (8, 16, 32 μg/mL), no bile acids
Procedure: Beta-Galactosidase Assay: Beta-galactosidase is an essential enzyme required by E. coli to metabolize lactose during conditions when available glucose levels are low, but lactose levels are high. When expression of beta-galactosidase is inhibited in a media containing limiting amounts of glucose but high amounts of lactose, once the glucose in the media is exhausted bacterial death occurs. […] To, 1.5 mL microfuge tubes, 50 μL of the induced culture was added to 200 μL of permeabilization solution (0.8 mg/mL hexadecyl trimethylammonium bromide (CTAB), 0.4 mg/mL sodium deoxycholate, 200 mM dibasic sodium phosphate (Na2HPO4), 20 mM potassium chloride (KCl), 2 mM magnesium sulfate (MgSO4), and 5.4 μL/mL beta-mercaptoethanol. After 30 minutes incubation at 30° C., 600 μL of substrate solution (60 mM Na2HPO4, 40 mM NaH2PO4, 10 mM KCl, 20 μg/mL CTAB, 1 mg/mL O-nitrophenyl-β-D-galactoside (ONPG), and 2.7 μL/mL β-mercaptoethanol) was added and the time of addition was recorded. The incubation was allowed to continue at 30° C. for 40 minutes, after which 350 μL of 2 M sodium carbonate (Na2CO3) was added to stop the reaction. The assay, tubes were centrifuged at 15000×g for 15 minutes and absorbance measurements at 420 nm were made in triplicate using the supernatants.
The concentration of β-galactosidase in Miller Units was calculated as: […]

E. coli H10407 = assay: Total protein content of bacteria treated with rifaximin and bile acids (Bradford assay); format: cell-based, Escherichia coli; settings: 16 μg/mL rifaximin + bile acids vs rifaximin without bile acids; 4 hours incubation
Procedure: Aliquots (1 mL) of the culture in each tube were taken every hour for total protein determination. In order to lyse the cells and release the protein, 300 μL of permeabilization solution (2.4 mg/mL hexadecyl trimethylammonium bromide, 1.2 mg/mL sodium deoxycholate, 600 mM dibasic sodium phosphate, 60 mM potassium chloride, 6 mM magnesium sulfate, and 16 μL/mL beta-mercaptoethanol) was added. The tubes were incubated for one hour at room temperature and then centrifuged at 15000×g for 20 minutes. The protein concentration was determined in triplicate using the Bradford assay (Bradford, M. M., A rapid and sensitive method for the quantitation of microgram quantities of protein utilizing the principle of protein-dye binding. Anal Biochem. 72:248-54, 1976) using bovine serum albumin (BSA) as the standard. Each experiment was repeated three times with the average and standard deviation reported.

[4] = test system: Shigella flexneri (serotype 2B); assay: Minimal inhibitory concentration (MIC), Shigella flexneri; format: cell-based
[5] = test system: Salmonella enterica (ATCC #14028); assay: Minimal inhibitory concentration (MIC), Salmonella enterica; format: cell-based; settings: ATCC14028
[6] = test system: Enteroaggregative E. coli; assay: Minimal inhibitory concentration (MIC), Enteroaggregative E. coli; format: cell-based; settings: Escherichia coli; Enteroaggregative strain of E. coli used
[7] = test system: Shigella flexneri (serotype 2B); assay: Growth (OD600) and total protein of Shigella flexneri with rifaximin and bile acids; format: cell-based; settings: 32 μg/mL rifaximin + 4 mM total bile acids
Procedure: A second culture of Shigella flexneri (serotype 2B) bacteria in LB media to which was added 4 mM of bile acids (comprising an equimolar mixture of each of the bile acids: cholic, deoxycholic, chenodeoxycholic, glycocholic, lithocholic, and taurocholic acids at pH 7.4).

[8] = test system: Salmonella enterica (ATCC #14028); assay: Growth (OD600) and total protein of Salmonella enterica with rifaximin and bile acids; format: cell-based; settings: 32 μg/mL rifaximin + 4 mM total bile acids
Procedure: A second culture of Salmonella enterica bacteria in LB media to which was added 4 mM of bile acids (comprising an equimolar mixture of each of the bile acids: cholic, deoxycholic, chenodeoxycholic, glycocholic, lithocholic, and taurocholic acids at pH 7.4).

[9] = test system: Enteroaggregative E. coli; assay: Growth (OD600) and total protein of Enteroaggregative E. coli with rifaximin and bile acids; format: cell-based; settings: 16 μg/mL rifaximin + 4 mM total bile acids
Procedure: A second culture of Enteroaggregative E. coli bacteria in LB media to which was added 4 mM of bile acids (comprising an equimolar mixture of each of the bile acids: cholic, deoxycholic, chenodeoxycholic, glycocholic, lithocholic, and taurocholic acids at pH 7.4).

[10] = test system: Enterotoxigenic Escherichia coli (ETEC) strain H10407; settings: cited from earlier work
coliform flora = settings: cited from earlier work
Clostridium difficile = settings: cited from earlier work
[11] = 4 mM bile acid + 16 μg/mL rifaximin vs 16 μg/mL rifaximin alone, 4 hours
[12] = bile acid 4 mM combined with 16 μg/mL rifaximin, after 4 hours of incubation
[13] = bile acid alone, no rifaximin, after 4 hours of incubation

Question: What does the source list for `C[C@H](CCC(=O)O)[C@H]1CC[C@H]2[C@@H]3[C@H](O)C[C@@H]4C[C@H](O)CC[C@]4(C)[C@H]3C[C@H](O)[C@]12C` [Cholic acid]?
Answer: PERCENT DECREASE IN CELL DENSITY ON ADDITION OF BILE ACIDS TO RIFAXIMIN [1, 11]: 95.5 ± 0.80%; PERCENT DECREASE IN CELL DENSITY ON ADDITION OF BILE ACIDS TO RIFAXIMIN ([1]; 4 mM bile acid + 16 μg/mL rifaximin vs 16 μg/mL rifaximin alone, 4 hours, listed as cholic acid): 95.5%; Cell density, 4 mM BILE ACIDS + 16 μg/mL RIFAXIMIN [1, 12]: 0.22 ± 0.20 ×10^8 bacteria/milliliter of c; Cell density, 4 mM BILE ACIDS [2, 13]: 11 ± 0.46 ×10^8 bacteria/milliliter of c

Question: Which “Cell density, 4 mM BILE ACIDS + 16 μg/mL RIFAXIMIN” value [1] does the source give for `C[C@H](CCC(=O)NCCS(=O)(=O)O)[C@H]1CC[C@H]2[C@@H]3[C@H](O)C[C@@H]4C[C@H](O)CC[C@]4(C)[C@H]3C[C@H](O)[C@]12C` [Taurocholic acid] here?
Answer: 1.1 ± 0.23

Question: And the “PERCENT DECREASE IN CELL DENSITY ON ADDITION OF BILE ACIDS TO RIFAXIMIN” value [1]?
Answer: 77.6% and 77.6 ± 0.77%

Question: And the “Cell density, 4 mM BILE ACIDS” value [2]?
Answer: 14 ± 0.51

Question: Which results are given for `CO[C@H]1/C=C/O[C@@]2(C)Oc3c(C)c(O)c4c(O)c(c5c(nc6cc(C)ccn65)c4c3C2=O)NC(=O)/C(C)=C\C=C\[C@H](C)[C@H](O)[C@@H](C)[C@@H](O)[C@@H](C)[C@H](OC(C)=O)[C@@H]1C` [rifaximin, Rifaximin]?
Answer: inhibition of bacterial growth by rifaximin alone ([1]; 16 μg/mL rifaximin, absence of bile acids): statistically significant (p=0.026, n=4) inhibition of bacterial growth; increase of anti-ETEC activity on addition of bile acids / human bile to rifaximin ([1]; after 4 hours): greater than 70%; Cell density, 16 μg/mL RIFAXIMIN ([1]; rifaximin alone, no bile acids, after 4 hours of incubation, control of the bile acid named in the row): 6.6 ± 0.50 ×10^8 bacteria/milliliter of c and 4.9 ± 1.0 ×10^8 bacteria/milliliter of c; amount of beta-galactosidase produced vs control [3]: decreased in a dose-dependent fashion below the control values; percent decrease in total bacterial protein expression when bile acids added (E. coli H10407): 59%; MIC [4]: 64 µg/mL (≈ 81.4 µM); MIC [5]: 64 µg/mL (≈ 81.4 µM); MIC [6]: 32 µg/mL (≈ 40.7 µM); effect of adding bile acids to rifaximin on growth and protein synthesis [7]: increases its ability to inhibit the growth and protein synthesis; effect of adding bile acids to rifaximin on growth and protein synthesis [8]: increases its ability to inhibit the growth and protein synthesis; effect of adding bile acids to rifaximin on growth and protein synthesis [9]: increases its ability to inhibit the growth and protein synthesis; in vitro minimal inhibitory concentration (MIC) [10]: 32 to 128 µg/mL; average MICs of most coliform flora (coliform flora): about 32 μg/mL; MIC (Clostridium difficile): 0.025 µg/mL (≈ 0.0318 µM)

Question: For `C[C@H](CCC(=O)O)[C@H]1CC[C@H]2[C@@H]3CC[C@@H]4C[C@H](O)CC[C@]4(C)[C@H]3C[C@H](O)[C@]12C` [Deoxycholic acid], which “PERCENT DECREASE IN CELL DENSITY ON ADDITION OF BILE ACIDS TO RIFAXIMIN” value [1, 11] is on record?
Answer: 93.8 ± 0.51%

Question: What about the “PERCENT DECREASE IN CELL DENSITY ON ADDITION OF BILE ACIDS TO RIFAXIMIN” value ([1]; 4 mM bile acid + 16 μg/mL rifaximin vs 16 μg/mL rifaximin alone, 4 hours, listed as deoxycholic acid) of the same compound?
Answer: 93.8%

Question: And the “Cell density, 4 mM BILE ACIDS + 16 μg/mL RIFAXIMIN” value [1, 12]?
Answer: 0.30 ± 0.49 ×10^8 bacteria/milliliter of c

Question: What about the “Cell density, 4 mM BILE ACIDS” value [2, 13] of the same compound?
Answer: 3.9 ± 0.34 ×10^8 bacteria/milliliter of c

Question: Which “PERCENT DECREASE IN CELL DENSITY ON ADDITION OF BILE ACIDS TO RIFAXIMIN” value [1, 11] does the source give for `C[C@H](CCC(=O)O)[C@H]1CC[C@H]2[C@@H]3CC[C@@H]4C[C@H](O)CC[C@]4(C)[C@H]3CC[C@]12C` [Lithocholic acid] here?
Answer: 43.9 ± 0.73%

Question: What about the “PERCENT DECREASE IN CELL DENSITY ON ADDITION OF BILE ACIDS TO RIFAXIMIN” value ([1]; 4 mM bile acid + 16 μg/mL rifaximin vs 16 μg/mL rifaximin alone, 4 hours, listed as lithocholic acid) of the same compound?
Answer: 43.9%

Question: What about the “Cell density, 4 mM BILE ACIDS + 16 μg/mL RIFAXIMIN” value [1, 12] of the same compound?
Answer: 2.8 ± 0.27 ×10^8 bacteria/milliliter of c

Question: What about the “Cell density, 4 mM BILE ACIDS” value [2, 13] of the same compound?
Answer: 6.6 ± 0.25 ×10^8 bacteria/milliliter of c

Question: What does the source list for `C[C@H](CCC(=O)O)[C@H]1CC[C@H]2[C@@H]3[C@H](O)C[C@@H]4C[C@H](O)CC[C@]4(C)[C@H]3CC[C@]12C` [Chenodeoxycholic acid]?
Answer: PERCENT DECREASE IN CELL DENSITY ON ADDITION OF BILE ACIDS TO RIFAXIMIN [1, 11]: 89.2 ± 0.49%; PERCENT DECREASE IN CELL DENSITY ON ADDITION OF BILE ACIDS TO RIFAXIMIN ([1]; 4 mM bile acid + 16 μg/mL rifaximin vs 16 μg/mL rifaximin alone, 4 hours, listed as chenodeoxycholic acid): 89.2%; Cell density, 4 mM BILE ACIDS + 16 μg/mL RIFAXIMIN [1, 12]: 0.53 ± 0.51 ×10^8 bacteria/milliliter of c; Cell density, 4 mM BILE ACIDS [2, 13]: 7.0 ± 0.06 ×10^8 bacteria/milliliter of c

Question: Which “PERCENT DECREASE IN CELL DENSITY ON ADDITION OF BILE ACIDS TO RIFAXIMIN” value [1, 11] does the source give for `C[C@H](CCC(=O)NCC(=O)O)[C@H]1CC[C@H]2[C@@H]3[C@H](O)C[C@@H]4C[C@H](O)CC[C@]4(C)[C@H]3C[C@H](O)[C@]12C` [Glycocholic acid] here?
Answer: 80.8 ± 0.40%

Question: What about the “PERCENT DECREASE IN CELL DENSITY ON ADDITION OF BILE ACIDS TO RIFAXIMIN” value ([1]; 4 mM bile acid + 16 μg/mL rifaximin vs 16 μg/mL rifaximin alone, 4 hours, listed as glycocholic acid) of the same compound?
Answer: 80.8%

Question: What about the “Cell density, 4 mM BILE ACIDS + 16 μg/mL RIFAXIMIN” value [1, 12] of the same compound?
Answer: 0.94 ± 0.60 ×10^8 bacteria/milliliter of c

Question: What about the “Cell density, 4 mM BILE ACIDS” value [2, 13] of the same compound?
Answer: 14 ± 0.32 ×10^8 bacteria/milliliter of c

Source: US20120196887A1, “METHODS AND COMPOSITIONS FOR IMPROVED RIFAMYCIN THERAPIES” (priority 2011, published 2012)
